In assay [1] the target is T1, STAT3-DNA complex (c-myc promoter) in MDA-MB-468 cells (Homo sapiens, UniProt P40763).
T1 construct: endogenous in cells; host or cells: MDA-MB-468
Description: ChIP assay, c-myc promoter binding by STAT3. It is filed as cell-based. The following applies: MDA-MB-468, 8 h; BENDA 25, 50, 100 μM, HP2 50, 100 μM. The method, then:
A ChIP assay was performed with an ExactaChIP Human/Mouse STAT3 ChIP kit (R&D Systems, Minneapolis, MN, USA). MDA-MB-468 cancer cells were fixed with 1% formaldehyde and treated with the lysis buffer. After sonication, anti-STAT3 antibody or normal mouse IgG was added to the extract, followed by precipitation with Protein G Plus/Protein A Agarose Suspension. The eluted DNA fraction was used for PCR with human c-myc primers.

For assay [2], the target named is T2, cellular STAT3 in MDA-MB-468 cells (Homo sapiens, UniProt P40763).
T2 construct: endogenous in cells; host or cells: MDA-MB-468
Description: Pull-down assay using Bio-BENDA, anti-STAT3 immunoprecipitation. It is filed as cell-based. The following applies: 50 μM Bio-BENDA plus excess free drug, 4 h. The method, then:
MDA-MB-468 cells were treated with biotinylated BENDA (Bio-BENDA) in the presence or absence of an excess amount of free drugs for 4 h and then lysed in PhosphoSafe™ Extraction Reagent (Merck, Darmstadt, Germany). Lysate (200 μL) was precleared with a mixture of Protein G Plus/Protein A Agarose Suspension (EMD Millipore, Billerica, MA, USA) for 1 h at 4°C and protein A and G agarose were removed by centrifugation at 13,000 rpm for 10 min. The lysate (200 μL) was immunoprecipitated with STAT3 antibody (1 μL) overnight at 4°C on a shaker and the immunocomplex was captured by the addition of a Protein G Plus/Protein A Agarose Suspension (30 μL) slurry for 1 h at 4°C. Samples were washed five times with lysis buffer and then boiled four times in SDS-PAGE sample buffer and run on an SDS-PAGE gel. The protein was transferred to a nitrocellulose membrane. The membranes were blocked in 5% skim milk in TBS/0.1% Tween 20. They were then incubated with streptavidin-HRP diluted at 1:2000 in 1.5% skim milk in TBS (pH7.4)/0.1% Tween 20 overnight at 4°C. Immunoblots were developed by using a chemiluminescent substrate.

Assay [3] has as its target T3, STAT3 Cys712 mutant (C712A) (Homo sapiens, UniProt P40763, C712A).
T3 construct: Full-length cDNAs were obtained from a human cDNA library by PCR; Avi-tag (N); 6His-tag (N); made in house; host or cells: Escherichia coli (pET-28a; host inferred to be the same BirA-BL21 as for wild type)
Description: SH2 binding AlphaScreen assay with Cys712 mutant recombinant STAT3. The following applies: 100 μM BENDA, 375 nM mutant STAT3, 30 min. The method, then:
(§1) Point mutations were introduced into recombinant human STAT3 (rhSTAT3) by inverse PCR. We mutated Cys468, Cys542, Cys550, Cys687, and Cys712 near the SH2 domain to alanine. Inverse PCR was performed by using pBluescript II KS (+) as a template, KOD-Plus-ver. 2 (Toyobo, Osaka, Japan), and the following oligonucleotide primer set: Cys468 (forward: 5’-TCCAACATCG CTCAGATGCC AAATG-3’, reverse: 5′-GATCACCACA ACTGGCAAGG AGTGG-3′); Cys542 (forward: 5′-GAATTATTCAGGGGCTCAGATCACATGGGCTAAAT-3′, reverse: 5′-ACACCAGGTC CCAAGAGTTT CTCTGCC-3′); Cys550 (forward: 5′-GCTAAATTTG CCAAAGAAAA CATGGCTGGC-3′, reverse: 5′-CCATGTGATC TGACACCCTG AATAATTCA CACC-3′); Cys687 (forward: 5′-GGAAAGTATG CTCGGCCAGA GAGCCAG-3′, reverse: 5′-GAATGCCTCC TCCTTGGGAA TGTCAGG-3′); and Cys712 (forward: 5′-AAGTTTATCG CTGTGACACC AACGACCTGC-3′, reverse: 5′-GGTCTTCAGG TATGGGGCAG CGCTAC-3′). Inverse PCR (1 × PCR buffer, 1.5 mM MgSO4, 15 pmol 5′ primer and 3′ primer, 0.2 mM dNTPs, 50 ng STAT3 cDNA, 1 U KOD Plus) was performed under the following conditions: 2 min at 94°C, (10 s at 98°C, and 6.5 min at 68°C)×7 cycles. The amplified fragment was ligated by using Ligation High ver. 2 (Toyobo). The resultant plasmid was cloned into the HindIII/XhoI sites of modified pET-28a (+). The nucleotides coding for human mutant STAT3 in pET-28a (+) were named mutant STAT3 His-Avi-pET28a (+). […]
(In general: Alpha assays give light when donor and acceptor beads are brought close together.)

For assay [4], the system named is MDA-MB-468 cells (high P-STAT3). Description: WST cell proliferation assay, MDA-MB-468. It is filed as cell-based, human. The settings on record: 0.1-100 μM, 48 h, WST-8. The method, then: Cells were plated in a 96-well tissue culture plate (1000 cells per well) and incubated for 48 h. After incubation, the cells were treated with vehicle, 0.1–100 μM BENDA, or HP2 for 48 h. Samples were assayed in triplicate. After incubation, WST-8 solution (10 μL; Dojindo Molecular Technologies, Rockville, MD, USA) was added to each well and incubated at 37°C for 4 h, and the absorbance was read at 450 nm.
On the technique in general: Formazan colour is commonly taken as a measure of viable cells.

The target in assay [5] is T4, STAT3 Cys550 mutant (C550A) (Homo sapiens, UniProt P40763, C550A).
T4 construct: Full-length cDNAs were obtained from a human cDNA library by PCR; Avi-tag (N); 6His-tag (N); made in house; host or cells: Escherichia coli (pET-28a; host inferred to be the same BirA-BL21 as for wild type)
In words: SH2 binding AlphaScreen assay with Cys550 mutant recombinant STAT3. The following applies: 100 μM BENDA, 375 nM mutant STAT3, 30 min. The method, then: as §1

Assay [6] concerns STAT3-Y705 phosphorylation in MDA-MB-468 cells. In words: Western blotting of STAT3-Y705 phosphorylation. The following applies: MDA-MB-468, 50 or 100 μM, 24 h. It is filed as cell-based, human. As to the method: Cells were treated with PhosphoSafe Extraction Reagent. Total proteins (40 μg) were subjected to SDS-PAGE and then transferred onto a nitrocellulose membrane. Membranes were blocked in 5% skim milk in TBS/0.1% Tween 20, incubated with primary antibodies diluted at 1:1000 in 1.5% skim milk in TBS (pH 7.4)/0.1% Tween 20 overnight at 4°C, and then incubated with HRP-conjugated secondary antibodies diluted at 1:5000 in TBS (pH 7.4)/0.1% Tween 20 for 1 h at room temperature. Immunoblots were developed with a chemiluminescent substrate.
On the technique in general: In western blotting, separated proteins are transferred to a membrane and probed.

Assay [7] has as its system cyclin D1, survivin and Bcl-2 mRNA in MDA-MB-468 cells. In words: RT-PCR of STAT3 target genes cyclin D1, survivin, Bcl-2. The format is cell-based, human. The following applies: MDA-MB-468, 50 or 100 μM, 8 h.

These results are taken from paper PMC5268383, “Inhibition of STAT3 by Anticancer Drug Bendamustine” (PLoS ONE, 2017).

Structures are written as SMILES.

T2 sequence (P40763 2-770 limits assumed): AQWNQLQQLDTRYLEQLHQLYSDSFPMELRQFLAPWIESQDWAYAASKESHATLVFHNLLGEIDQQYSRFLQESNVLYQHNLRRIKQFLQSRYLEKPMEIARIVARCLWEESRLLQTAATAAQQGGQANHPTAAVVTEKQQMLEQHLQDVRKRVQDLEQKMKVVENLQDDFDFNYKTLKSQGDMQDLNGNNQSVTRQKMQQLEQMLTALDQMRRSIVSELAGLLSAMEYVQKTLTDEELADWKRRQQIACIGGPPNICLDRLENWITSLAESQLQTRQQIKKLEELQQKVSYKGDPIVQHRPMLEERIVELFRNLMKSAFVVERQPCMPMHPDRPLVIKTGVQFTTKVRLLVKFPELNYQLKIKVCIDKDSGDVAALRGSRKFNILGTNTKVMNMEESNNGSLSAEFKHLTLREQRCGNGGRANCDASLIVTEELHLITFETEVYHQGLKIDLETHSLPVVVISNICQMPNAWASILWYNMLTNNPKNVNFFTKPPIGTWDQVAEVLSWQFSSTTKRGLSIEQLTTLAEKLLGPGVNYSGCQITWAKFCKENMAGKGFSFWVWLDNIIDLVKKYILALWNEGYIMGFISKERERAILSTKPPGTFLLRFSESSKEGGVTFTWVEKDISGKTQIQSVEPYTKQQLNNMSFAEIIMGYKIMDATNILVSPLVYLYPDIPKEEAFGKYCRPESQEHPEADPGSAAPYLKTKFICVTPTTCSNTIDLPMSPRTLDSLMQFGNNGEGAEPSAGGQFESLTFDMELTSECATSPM
T1 sequence (P40763 2-770 limits assumed, one chain of several): as the sequence (P40763 2-770 limits assumed) above
T3 sequence (P40763 whole entry C712A): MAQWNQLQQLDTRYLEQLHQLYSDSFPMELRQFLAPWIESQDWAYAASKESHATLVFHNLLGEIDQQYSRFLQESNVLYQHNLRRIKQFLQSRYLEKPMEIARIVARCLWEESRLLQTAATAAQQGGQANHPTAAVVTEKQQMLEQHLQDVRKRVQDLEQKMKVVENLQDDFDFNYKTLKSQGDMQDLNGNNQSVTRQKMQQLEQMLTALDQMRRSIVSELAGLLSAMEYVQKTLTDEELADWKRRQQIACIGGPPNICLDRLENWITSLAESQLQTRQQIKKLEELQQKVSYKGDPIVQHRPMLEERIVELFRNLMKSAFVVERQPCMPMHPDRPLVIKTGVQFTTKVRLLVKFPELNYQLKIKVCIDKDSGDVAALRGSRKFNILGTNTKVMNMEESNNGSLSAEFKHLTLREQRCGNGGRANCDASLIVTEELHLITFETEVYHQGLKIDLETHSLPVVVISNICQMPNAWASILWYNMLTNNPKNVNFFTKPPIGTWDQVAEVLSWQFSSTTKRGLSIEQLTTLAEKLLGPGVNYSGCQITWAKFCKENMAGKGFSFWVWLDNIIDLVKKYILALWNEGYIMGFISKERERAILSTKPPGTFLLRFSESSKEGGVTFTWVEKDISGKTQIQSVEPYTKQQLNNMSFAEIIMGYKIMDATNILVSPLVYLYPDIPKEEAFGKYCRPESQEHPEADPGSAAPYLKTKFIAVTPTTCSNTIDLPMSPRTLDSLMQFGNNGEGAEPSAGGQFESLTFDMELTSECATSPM
T4 sequence (P40763 whole entry C550A): as the sequence (P40763 whole entry C712A) above, with C550A, A712C counted along it

Take `Cn1c(CCCC(=O)O)nc2cc(N(CCCl)CCCl)ccc21` [BENDA, 4-{5-[bis(2-chloroethyl)amino]-1-methyl-2-benzimidazolyl} butyric acid]: the “Amplified c-myc promoter band in STAT3 ChIP” value in assay [1] is given as “reduced”. The “Competition of Bio-BENDA STAT3 band intensity by excess free drug” value in assay [2] is on record as “competitively reduced”. Further, the inhibition at 100 µM in assay [3] worked out at 25%. Further, the “Inhibition of proliferation of MDA-MB-468 cells” value in assay [4] is on record as “inhibited proliferation”. For the same compound, the inhibition at 100 µM in assay [5] is 3%. In addition, the “Phosphorylation of STAT3-Y705” value in assay [6] is “inhibited the phosphorylation of STAT3-Y705 in a concentration-dependent manner”. In assay [7], the “Bcl-2 mRNA expression” value was “dose-dependent decrease”, the “cyclin D1 mRNA expression” value is on record as “dose-dependent decrease” and the “survivin mRNA expression” value is listed as “dose-dependent decrease”.

As usually defined, the inhibition is the drop in the measured response relative to a control, in per cent.
